Laboratory results from publication PMC8347148, “An Evaluation of Human Induced Pluripotent Stem Cells to Test for Cardiac Developmental Toxicity” (International Journal of Molecular Sciences, 2021).
In brackets after ≈: the same amount, converted by molar mass. Like-named read-outs stand apart in the source and are kept apart here.

Assays:
[1] = tested on: TBX5 mRNA expression; experiment: day 10 qPCR of TBX5 in differentiating hiPSCs; type: cell-based, human; conditions: for hiPSCs (d10 TBX5) ID50: day 10, 50% reduction in TBX5 gene expression vs control
Description: (§1) One of the main critiques of traditional developmental toxicity evaluations is the length of time and technical training required to successfully complete assays. As such, a shorter, quantifiable, and correct in vitro embryotoxicity assessment could improve throughput without sacrificing accuracy. Given the correct predictions achieved with contraction counts described above, we next investigated if our approach could be modified with a shorter, qPCR-based endpoint to determine differentiation inhibition. Here, we selected two cardiogenesis-specific transcription factors, TBX5 and MEF2c, to determine if the adverse differentiation outcomes would already be detectable as changes in TBX5 and MEF2c expression on day 10 of differentiation.
(§2) RNA was extracted from three wells per biological replicate using the protocol from NucleoSpin RNA II kit (Macherey-Nagel, Mountain View, CA, USA) and pooled. RNA from three independent differentiations was then quantified using a NanoDrop® 1000 spectrophotometer (ThermoFisher Scientific, Grand Island, NY, USA) at 260 nm. 25 ng of total RNA was used as a template for cDNA synthesis with a mastermix including 5 µL 5× reaction buffer, 1.25 µL 10 mM dNTPs, 1.25 µL 400 U/µL RNase inhibitor, 0.1 µL 200 U/µL reverse transcriptase, 0.1 µL 3 µg/µL random primer, and 1.5 µL DEPC H2O for a total of 25 µL per reaction. 25 ng cDNA transcripts were used for quantitative polymerase chain reaction (qPCR) SYBR green technology on the MyiQ cycler (Bio-Rad). The reactions were setup for 10 min of denaturing at 94 °C (initial), followed by 40 cycles of denaturing at 94 °C, and annealing at 60 °C each 45 s. The n-fold expression in target samples was calculated with the ΔΔCT method by standardizing Ct values to GAPDH expression. Primer sequences for human GAPDH were 5′-[…]-3′ and 5′-[…]-3′. Target genes were cardiogenic markers TBX5 and MEF2c. Primer sequences for human TBX5 were 5′-[…]-3′ and 5′-[…]-3′ and primer sequences for human MEF2c were 5′-[…]-3′ and 5′-[…]-3′ [27].
(§3) Half-maximal inhibitory compound doses of differentiation (ID50) and cytotoxicity (IC50) were determined from concentration-response curves using GraphPad Prism.

[2] = tested on: mESCs; design: method as in PMID 14761682, PMID 21720311; conditions: EST prediction model; cited from earlier work
[3] = tested on: MEF2c mRNA expression; experiment: day 10 qPCR of MEF2c in differentiating hiPSCs; type: cell-based, human
Description: as §1, §2, §3

[4] = tested on: hiPSC; experiment: hiPSC-EST biostatistical prediction model; design: species or system human; conditions: for hiPSC (day 25 cluster) Biostatistical Embryotoxicity Classification: EST prediction model with contractile ID50, hiPSC IC50 and hFF IC50; for hiPSC (day 10 qPCR) Biostatistical Embryotoxicity Classification: EST prediction model with d10 TBX5 ID50
Description: The prediction model uses a series of equations to perform a linear discriminant analysis using determined IC50 and ID50 values determined from dose–response curves. […] Importantly, half-maximal concentrations found for 5-FU and atRA were decades lower than the maximum plasma concentration (Cmax) achieved during human exposure underscoring the strong potential of these two compounds to elicit embryotoxic outcomes in vivo.
To compare the efficacy of qPCR-based embryotoxicity classifications versus contractile assay-based classifications, the ID50 values generated from 5-FU and atRA TBX5 mRNA dose–response curves were compared against the ID50 values from the contractile assay curves in the EST biostatistical model.

[5] = tested on: human foreskin fibroblasts (hFF); experiment: hFF viability screen (MTT); type: cell-based; conditions: for IC50: Homo sapiens, Fibroblast; for concentrations with reductions in hFF cell viability: Figure 4B
Description: Human foreskin fibroblasts (hFF) were gifted from Dr. Derrick Rancourt (University of Calgary). hFFs were seeded onto 0.1% gelatin-coated tissue culture plates and maintained in Dulbecco’s modification of Eagle’s medium (DMEM with 4.5 g/L glucose, L-glutamine and sodium pyruvate; Corning cellgro) supplemented with 10% FBS (Atlanta Biologicals, Flower Branch, GA, USA) and 0.5% penicillin/streptomycin (10,000 units/10,000 units, Gibco).
5-flurorouracil (5-FU), all-trans retinoic acid (atRA), and penicillin G (PenG) were selected from a subset of chemicals used in the original EST validation study. 5-FU and atRA were selected as positive test compounds due to their established embryotoxic potential while PenG was used as a negative control. All chemicals were purchased from Sigma. Stock solutions were prepared in DMSO and filtered through a 0.2 micron Acrodisc® PSF Syringe Filter (Pall Corporation, Port Washington, NY, USA), aliquoted into sterile microcentrifuge tubes and stored at −20 °C until use. Test chemicals were serially diluted to final concentrations in differentiation media. Cardiogenic cultures were treated with designated chemicals (or solvent only) through day 25 of differentiation and hFF cultures were treated with each compound for a 25 day duration period. Compounds were replenished with each medium change.
Cardiomyocyte survival following concurrent exposure to each compound was evaluated by 3-[4,5-dimethylthiazol-2-yl]-2,5-diphenylterazolium bromide (MTT) assay from three independent differentiations each carried out in technical quintuplicate as previously described. On day 25 of differentiation, cells were incubated with MTT (5 mg/mL) for 2 h at 37 °C. MTT supernatant was removed and replaced with a desorb solution of 0.7% SDS in 2-propanol. The absorbance of the solution was measured at 570 nm in an iMark™ microplate reader (Bio-Rad) with 655 nm as a reference wavelength. Here, mitochondrial dehydrogenase activity on the MTT in solution is directly proportional to a blue-purple product that is detected at 570 nm.
as §3

[6] = tested on: mESCs; design: method as in PMID 14761682; conditions: mESC-EST, cell viability; previously obtained in the authors' lab; cited from earlier work
[7] = 600 h, MTT, 25 day treatment, read-out: hFF IC50
[8] = fibroblast row of the hiPSC-EST in Table 1 (values equal hFF IC50 of Table 2), read-out: hiPSC 3T3 IC50

Structure (SMILES)	concentrations with dramatically reduced d10 TBX5 mRNA expression ([1]; day 10)	hiPSCs (d10 TBX5) ID50 [1]	mESC Biostatistical Embryotoxicity Classification [2]	effect on MEF2c mRNA expression ([3]; day 10)	hiPSC (day 25 cluster) Biostatistical Embryotoxicity Classification [4]	hiPSC (day 10 qPCR) Biostatistical Embryotoxicity Classification [4]	effect on hFF cell viability [5]	IC50 [5, 7]	IC50 [5, 8]	concentrations with reductions in hFF cell viability ([5]; MTT)	mESCs IC50 [6]	concentrations with significant upregulation in TBX5 mRNA expression ([1]; day 10)	doses with steady decline in MEF2c mRNA expression ([3]; day 10)	MEF2c mRNA ID50 ([3]; day 10 of differentiation)	hFF IC50 ([5]; MTT, 25 day treatment)	concentration with significant cell death in hFF ([5]; highest tested concentration)	effect on TBX5 mRNA expression ([1]; day 10)	hiPSC (day 25 cluster) Biostatistical Embryotoxicity Classification ([4]; listed as PenG)	hiPSC (day 10 qPCR) Biostatistical Embryotoxicity Classification ([4]; listed as PenG)
O=c1[nH]cc(F)c(=O)[nH]1 [5-Fluorouracil, 5-fluorouracil]	above 1 × 10^−4 μg/mL	0.000179 µg/mL	Strongly embryotoxic	No reductions in MEF2c mRNA expression	Strongly embryotoxic	Strongly embryotoxic	dose-dependent reduction in cell viability	0.000808 µg/mL (≈ 0.00621 µM)	0.00081 µg/mL (≈ 0.00623 µM)	> 0.1 ng/mL	22 ng/mL								
CC1=C(/C=C/C(C)=C/C=C/C(C)=C/C(=O)O)C(C)(C)CCC1 [All-Trans Retinoic Acid, all-trans retinoic acid]		3.28e-06 µg/mL	Strongly embryotoxic	dose-dependently downregulated	Strongly embryotoxic	Strongly embryotoxic	dose-dependent reduction in cell viability	0.0125 µg/mL (≈ 0.0415 µM)	0.0125 µg/mL (≈ 0.0416 µM)	> 10 ng/mL	0.09 ng/mL	lower than 1 × 10^−6 μg/mL	above 1 × 10^−3 μg/mL	0.04 µg/mL	0.0125 µg/mL	1000 ng/mL			
CC1(C)S[C@@H]2[C@H](NC(=O)Cc3ccccc3)C(=O)N2[C@H]1C(=O)O [Penicillin G, penicillin G]		>1000 µg/mL	Not embryotoxic	remained largely unchanged	Not embryotoxic	Not embryotoxic		~1430 µg/mL (≈ 4290 µM)	1430 µg/mL (≈ 4290 µM)	≥ 800000 ng/mL	800000 ng/mL						did not significantly impact TBX5 mRNA expression	non-embryotoxic	non-embryotoxic
